What was measured:
[1] = system: EGFP-FKBP-LC8TRAP transfected COS1 cells; test: Endosome dispersion (EEA1 staining) in trap-transfected cells; format: cell-based; details: for time of drug treatment after which maximum dispersion was reached: unchanged with further increase in time; for maximum number of cells with dispersed endosomes: 2 h, dimerizer concentrations greater than 500 nM; for drug concentration at which maximum dispersion is seen: 2 hrs treatment, unchanged with further increase in concentration
Procedure: Cell Culture. COS1 cells were cultured in DMEM (CELLGRO®) supplemented with 10% fetal bovine/calf serum (Omega Scientific). Transfection was performed in 80-90% confluent 24-h cultures of COS1 cells using LIPOFECTAMINE™ 2000 (Invitrogen) and OPTI-MEM™ media (GIBCO®) according to the manufacturer's recommendations. Various concentrations (0 nM to 1000 nM) of AP (Ariad Pharmaceuticals Inc.) and PhAP (as described herein) were added to each experimental wells 24 hr. post transfection and incubated for different periods of time before analyzing the cells. For reversibility of endosome dispersion studies, 500 nM of AP/PhAP were used. In each case, the cells were washed well with PBS and supplemented with fresh media before inducing with UV light (10 mins., 4 W, 350 nm) and allowed to recover for various time period at 37° C., before analysis.
Immunostaining and Microscopy. For immunostaining, transiently transfected COS1 cells were fixed with 3.7% formaldehyde at room temperature for 10 min, and subsequent immunostaining was performed as described previously^[2]. Briefly, COS 1 cells grown on 25-mm coverslips were washed 3× with PBS, treated with 3.7% formaldehyde (Sigma) in PBS for fixation, and permeabilized in 0.5% Triton X-100 (Sigma) in PBS at room temperature for 10 min. Cells were then incubated with blocking buffer containing 4% skimmed milk (fat free) and 0.5% Triton X-100 in PBS. Anti-EEA1 monoclonal antibody was added to label early endosome marker protein at a dilution of 1:100 in the same buffer for 30 min at RT, and the coverslips were washed and incubated with rhodamine-conjugated donkey anti-mouse secondary antibody (1:100). After washing, the coverslips were mounted on slides to visualize the trapping effects. Samples were viewed using an Olympus IX81 automated inverted microscope equipped with water immersion 60× objective. The level of dispersion was quantified by counting 100 cells per coverslip. Each experiment was performed in triplicate. Images were obtained using a Spot RT Slider high-resolution cooled CCD camera equipped to IX81 microscope and Image-Pro software. Images were cropped and processed using Adobe Photoshop 7.0 (Adobe Systems).
To determine if these biochemical results had relevance in cells, we investigated if photocleavage of PhAP could reverse the endosome dispersion phenotype induced by LC8TRAP and AP. First, we established that PhAP behaved in a similar intracellular manner as AP. To this end, we used a green fluorescent protein (GPF) analog of the trap, EGFP-FKBP-LC8TRAP to identify cells that expressed the trap. COS1 cells were transiently transfected with EGFP-FKBP-LC8TRAP for 24 h, after which they were treated with PhAP or AP (0 nM-1000 nM) for 2 h. Cells were then fixed and stained with an early endosome marker 1 (EEA1). The number of cells with dispersed endosomes after treatment with PhAP or AP was indistinguishable. The maximum number of cells with dispersed endosomes (67.5±7.0% for PhAP and 64.1±7.6% for non-photocleavable AP), was obtained at dimerizer concentrations greater than 500 nM. The rate of dispersion was also similar using either dimerizing agent, and no changes were observed past 2 hours. The values obtained for both AP and PhAP are also in agreement with our previous studies. See e.g., Varma et al., 2010 (Id.)

[2] = system: TcTex1 and FKBP-IC peptide (TcTex1 trap); test: Native PAGE and SEC of TcTex1 / TcTex-trap complex formation with AP20187; format: biochemical
Text: To generate a TcTex1 trap, residues 107-125 of rat dynein IC2C, which specifically interact with TcTex1, were fused to the C-terminus of FKBP (FKBP-IC; FIG. 10D). […] However, addition of AP20187 to the admixture of FKBP-IC (L112A) peptide and TcTex1 produced a shift, but required a 16-fold higher concentration of AP20187 than the LC8/LC8-trap interaction (FIG. 10E, round 2). Based on this observation, we hypothesized that the sequence immediately preceding the TcTex1-binding region may interfere with the interaction, either through conformational restriction due to P109 or electrostatic repulsion due to K111. Therefore, we mutated the sequence PIK to GGS, to introduce flexible, hydrophilic residues (residues 109-111) (FIG. 10D).

[3] = system: non-transfected or GFPFKBP-expressing cells; test: Organelle dispersion in cells without trap treated with AP20187; format: cell-based
Text: In vivo effect of Dynein LC and IC Traps. As tests for LC function, we evaluated the effects of the traps on early endosome, lysosome, and Golgi distribution, as well as mitotic progression. First, we fused green fluorescent protein (GFP) to the N-terminus of both FKBP-traps to identify transfected cells. Next, we transfected Cos1, Cos7, or HeLa cells with either trap or a GFP-FKBP control and labeled endosomes, lysosomes and Golgi with EEA1, LAMP2 and GM130 markers, respectively (FIGS. 12A-12C). […] The percentage of cells expressing the GFPLC8 or GFP-TcTex1 trap with dispersed endosomes was 14.7±1.5% and 13.3±1.5%, respectively, as compared to 11.7±3.5% and 10.3±3.5% for non-transfected cells and cells that expressed a GFP-FKBP control, respectively. […] After 8 h of treatment with AP20187, we observed greater than 50% dispersion of the three organelle types for each trap.
To ensure the AP20187 concentration was not limiting, we followed the LC8-trap-induced dispersion of lysosomes as a function of AP20187 concentration after 8 h. […] For the TcTex1-trap, we observed efficient endosome, lysosome and Golgi dispersion at AP20187 concentrations of 1 μM or greater.

[4] = 500 nM, time 0.167 Hr (10 min.)
[5] = modified FKBP-IC trap, PIK to GGS (round 3)

CC[C@H](C(=O)N1CCCC[C@H]1C(=O)O[C@H](CCc1ccc(OC)c(OC)c1)c1cccc(OCC(=O)OC(C)c2ccc(C(C)OC(=O)COc3cccc([C@@H](CCc4ccc(OC)c(OC)c4)OC(=O)[C@@H]4CCCCN4C(=O)[C@@H](CC)c4cc(OC)c(OC)c(OC)c4)c3)c([N+](=O)[O-])c2)c1)c1cc(OC)c(OC)c(OC)c1 (stereo partly shown) [PhAP]
Percentage of endosomes dispersion ([1]; 10 nM, 2 hr. of treatment): 47.9 ± 8.1% | Percentage of endosomes dispersion ([1]; 20 nM, 2 hr. of treatment): 48.0 ± 5.0% | Percentage of endosomes dispersion ([1]; 50 nM, 2 hr. of treatment): 55.5 ± 1.3% | Percentage of endosomes dispersion ([1]; 100 nM, 2 hr. of treatment): 57.5 ± 2.4% | Percentage of endosomes dispersion ([1]; 500 nM, 2 hr. of treatment): 67.5 ± 7.0% | Percentage of endosomes dispersion ([1]; 500 nM, time 0 Hr): 29.0 ± .8% | Percentage of endosomes dispersion [1, 4]: 47.2 ± 2.5% | Percentage of endosomes dispersion ([1]; 500 nM, time 0.5 Hr): 49.1 ± 3.3% | Percentage of endosomes dispersion ([1]; 500 nM, time 1 Hr): 57.2 ± 5.2% | Percentage of endosomes dispersion ([1]; 500 nM, time 2 Hr): 71.2 ± 2.0% | Percentage of endosomes dispersion ([1]; 500 nM, time 4 Hr): 69.0 ± 4.9% | time of drug treatment after which maximum dispersion was reached ([1]; 500 nM): 2 h | Percentage of endosomes dispersion ([1]; 1000 nM, 2 hr. of treatment): 67.7 ± 4.9% | maximum number of cells with dispersed endosomes [1]: 67.5±7.0% | drug concentration at which maximum dispersion is seen [1]: 500 nM

CCC(C(=O)N1CCCCC1C(=O)OC(CCc1ccc(OC)c(OC)c1)c1cccc(OCC(=O)NCC(CNC(=O)COc2cccc(C(CCc3ccc(OC)c(OC)c3)OC(=O)C3CCCCN3C(=O)C(CC)c3cc(OC)c(OC)c(OC)c3)c2)CN(C)C)c1)c1cc(OC)c(OC)c(OC)c1 (stereo not shown) [AP, AP20187]
Percentage of endosomes dispersion ([1]; 10 nM, 2 hr. of treatment): 44.4 ± 2.4% | Percentage of endosomes dispersion ([1]; 20 nM, 2 hr. of treatment): 53.0 ± 3.5% | Percentage of endosomes dispersion ([1]; 100 nM, 2 hr. of treatment): 56.2 ± 1.6% | Percentage of endosomes dispersion ([1]; 500 nM, 2 hr. of treatment): 64.1 ± 7.6% | Percentage of endosomes dispersion ([1]; 500 nM, time 0 Hr): 30.2 ± 2.8% | Percentage of endosomes dispersion [1, 4]: 45.0 ± 2.6% | Percentage of endosomes dispersion ([1]; 500 nM, time 0.5 Hr): 53.6 ± 6.5% | Percentage of endosomes dispersion ([1]; 500 nM, time 1 Hr): 53.8 ± 2.9% | Percentage of endosomes dispersion ([1]; 500 nM, time 2 Hr): 69.8 ± 4.3% | Percentage of endosomes dispersion ([1]; 500 nM, time 4 Hr): 70.9 ± 2.1% | time of drug treatment after which maximum dispersion was reached ([1]; 500 nM): 2 h | Percentage of endosomes dispersion ([1]; 1000 nM, 2 hr. of treatment): 66.4 ± 2.5% | maximum number of cells with dispersed endosomes [1]: 64.1±7.6% | drug concentration at which maximum dispersion is seen [1]: 500 nM | fold higher concentration of AP20187 required for shift than the LC8/LC8-trap interaction ([2]; FKBP-IC (L112A) peptide and TcTex1 (round 2)): 16 fold | concentration of AP20187 to fully sequester TcTex1 relative to that required for the LC8-trap [2, 5]: approximately twice | fold lower concentration of AP20187 to fully sequester TcTex1 than the FKBP-IC (L112A) peptide [2, 5]: ~8 fold | effect on dispersion for each organelle ([3]; AP20187 for 8 h): did not affect the dispersion | dispersal of organelles at any concentration tested ([3]; non-transfected cells, <2 μM): did not show dispersal
